Columns and labels:
[1] = tested on: 2×GRE reporter; test: Modulation of dexamethasone/NR3C1 ligand-induced 2×GRE reporter activation (kinase inhibitors, TNF, formoterol) in BEAS-2B cells; assay type: cell-based, human; settings: dexamethasone
Experimental: BEAS-2B cells stably transfected with a glucocorticoid response element (2×GRE) driven luciferase reporter plasmid, pGL3.neo.TATA.neo [23], were cultured in medium containing 0.25 mg/ml G-418 (Promega, Madison, WI). Cells were grown to confluence in 24 or 48 well plates and incubated overnight in serum-free media prior to experiments. Cells were harvested in reporter lysis buffer and luciferase assays performed according to the manufacturer’s instructions (Firefly Luciferase Assay Kit; Biotium; Hayward, CA) using a 20/20n luminometer (Promega).
Data (n = 7), expressed as a percentage of Dex activation, are plotted as means ± S.E. BEAS-2B 2×GRE cells were pre-treated for 30 min with the indicated concentrations of B. PS or JNK or C. JNK in the presence or absence of 10 μM PS, before addition of 10 ng/ml TNF. After 1 h, 10 μM Dex was added and cells harvested 6 h later for luciferase assay. […] D+T indicates Dex plus TNF treatment.
Data (n = 3–4), expressed as fold activation, are plotted as means ± S.E. D+T indicates Dex plus TNF treatment.
Cells were harvested after 6 h for luciferase assays. Data (n = 7), expressed as fold activation, are plotted as means ± S.E. Lines of best fit were added in panel B. Statistical analyses were performed by ANOVA with a Dunnett’s test comparing each NR3C1 ligand alone versus in the presence of TNF and/or Form. *, P<0.05; **, P<0.01; ***, P<0.001.

[2] = tested on: JUN (c-Jun) phosphorylation; test: Western blot of TNF-induced JUN phosphorylation in BEAS-2B cells; assay type: cell-based, human; settings: 30 min pre-treatment, TNF 10 ng/ml 15 min, western blot (S1 Fig.), read-out: EC50 for decrease of TNF-induced JUN phosphorylation
Description: Cells were lysed in 1× Laemmli buffer supplemented with phosphatase inhibitors (Sigma-Aldrich) and 1× complete protease inhibitor cocktail (Roche; Indianapolis, IN), size fractionated on 12% acrylamide gels and subsequently electro-transferred onto Hybond enhanced chemiluminescent membranes (GE Healthcare; Waukesha, WI). Membranes were blocked in 5% milk in tris-buffered saline containing 1% tween 20 and probed with antibodies against phospho-jun proto-oncogene (pJUN; pc-Jun) (9164; Cell Signaling Technology; Danvers, MA), nuclear factor of kappa light polypeptide gene enhancer in B-cells inhibitor, alpha (NFKBIA; IκBα) (sc-371; Santa Cruz Biotechnology; Dallas, TX), phospho-NFKBIA (9246; Cell Signaling Technology), phospho-AKT1 (9271S; Cell Signaling Technology), AKT (9272S; Cell Signaling Technology) and GAPDH (4699–9555(ST); AbD Serotec; Raleigh, NC). After washing, membranes were incubated with horseradish peroxidase-conjugated anti-rabbit (111–035–003; Jackson ImmunoResearch Laboratories Inc; West Grove, PA) or anti-mouse immunoglobulin (115–035–003; Jackson ImmunoResearch Laboratories Inc). Detection was by enhanced chemiluminescence (Pierce ECL Western Blotting Substrate; Thermo Fisher Scientific Inc.; Rockford, IL) and visualization by autoradiography. […]

[3] = tested on: CDKN1C, DUSP1, RGS2 and TSC22D3 mRNA in BEAS-2B cells; test: RT-PCR of glucocorticoid-inducible gene expression in BEAS-2B cells; settings: JNK inhibitor VIII 3 or 10 μM, PS-1145 10 μM, 6 h (Fig. 7)
Experimental: Cells were harvested 6 h after Dex addition.
BEAS-2B cells were pre-treated for 30 min with either 10 or 3 μM of the JNK MAPK inhibitor JNK inhibitor VIII (JNK) or 10 μM of the IKK2 inhibitor PS-1145 (PS), before addition of 10 ng/ml tumor necrosis factor-α (TNF).
Cells were harvested 6 h after NR3C1 ligand addition.

`CCOc1nc(NC(=O)Cc2cc(OC)ccc2OC)cc(N)c1C#N` [JNK inhibitor VIII] was tested, and the “2×GRE reporter induction restored in presence of TNF, % of that induced by dexamethasone” value ([1]; 10 μM inhibitor 30 min pre-treatment, TNF 10 ng/ml, 6 h (Fig. 3A)) was 77%, the “Effect on dexamethasone-induced 2×GRE reporter activation (concentration-response)” value ([1]; 30 min pre-treatment, 6 h (Fig. 3B, Fig. 4), JNK inhibitor VIII only at 30 μM, PKC inhibitors above 1 μM) was “modestly enhanced” and the “TNF-induced repression reversed to % of the response to dexamethasone” value ([1]; concentration-response, TNF 10 ng/ml, 6 h (Fig. 3B), repression ~60% without inhibitor) was 87%. For the same compound, the EC50 ([1]; read-out: EC50 for reversal of TNF-induced repression of 2×GRE reporter, TNF 10 ng/ml, 6 h (Fig. 3B)) was 1600 nM, the EC50 [2] was ~300 nM and the “Effect on dexamethasone-induced mRNA expression of CDKN1C, DUSP1, RGS2, TSC22D3 in absence or presence of TNF” value [3] was “no significant effect”.

Reference: article PMC4308083, “Cytokine-Induced Loss of Glucocorticoid Function: Effect of Kinase Inhibitors, Long-Acting β2-Adrenoceptor Agonist and Glucocorticoid Receptor Ligands” (PLoS ONE, 2015)
